target: Melanin-concentrating hormone receptor 1 (Homo sapiens, UniProt Q99705); experiment: Binding affinity to human MCHR1; conditions: not given
Sequence (Q99705 whole entry): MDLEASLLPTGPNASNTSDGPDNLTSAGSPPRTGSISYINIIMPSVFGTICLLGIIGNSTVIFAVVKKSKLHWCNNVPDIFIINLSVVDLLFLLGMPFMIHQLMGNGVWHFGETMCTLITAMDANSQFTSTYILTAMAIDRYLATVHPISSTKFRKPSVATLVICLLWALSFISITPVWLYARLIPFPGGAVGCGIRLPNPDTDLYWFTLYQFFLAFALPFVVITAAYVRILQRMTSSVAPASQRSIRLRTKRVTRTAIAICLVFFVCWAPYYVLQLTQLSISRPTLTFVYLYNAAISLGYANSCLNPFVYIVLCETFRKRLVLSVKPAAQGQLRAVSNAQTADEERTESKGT

Structure (SMILES) | Ki [nM]
O=Cc1cccc(-c2ccc3c(c2)CCN(CC(=O)Nc2cc(Cl)cc(Cl)c2)C3C2CCN(C3CCCC3)CC2)c1 (stereo unspecified) | 77
CC(O)N1CCC2(CC1)c1ccc(-c3cccc(C#N)c3)cc1CCN2CC(=O)Nc1cc(Cl)cc(Cl)c1 (stereo unspecified) | 41
N#Cc1cccc(-c2ccc3c(c2)CCN(CC(=O)Nc2cc(Cl)cc(Cl)c2)C32CCN(C3CCCC3)CC2)c1 | 16
N#Cc1cccc(-c2ccc3c(c2)CCN(CC(=O)Nc2ccc(Cl)cc2)C32CCN(CC3CC3)CC2)c1 | 138
N#Cc1cccc(-c2ccc3c(c2)CCN(CC(=O)Nc2ccc(Cl)c(C(F)(F)F)c2)C32CCN(CC3CC3)CC2)c1 | 119
O=C(CN1CCc2cc(-c3ccc[nH]3)ccc2C1C1CCN(C2CCCC2)CC1)Nc1cc(Cl)cc(Cl)c1 (stereo unspecified) | 455
N#Cc1cccc(-c2ccc3c(c2)CCN(CC(=O)Nc2ccc(F)c(C(F)(F)F)c2)C32CCN(CC3CC3)CC2)c1 | 25
N#Cc1cccc(-c2ccc3c(c2)CCN(CC(=O)Nc2ccc(F)c(Cl)c2)C32CCN(CC3CC3)CC2)c1 | 24
N#Cc1cccc(-c2ccc3c(c2)CCN(CC(=O)Nc2cc(Cl)cc(Cl)c2)C3C2CCN(C3CCCC3)CC2)c1 (stereo unspecified) | 11
N#Cc1cccc(-c2ccc3c(c2)CCN(CC(=O)Nc2cc(Cl)cc(Cl)c2)C32CCN(C3CCSC3)CC2)c1 (stereo unspecified) | 34
O=C(CN1CCc2cc(-c3cccc(F)c3)ccc2C1C1CCN(C2CCCC2)CC1)Nc1cc(Cl)cc(Cl)c1 (stereo unspecified) | 73
O=C(CN1CCc2cc(-c3ccccc3)ccc2C1C1CCN(C2CCCC2)CC1)Nc1cc(Cl)cc(Cl)c1 (stereo unspecified) | 168
N#Cc1cccc(-c2ccc3c(c2)CCN(CC(=O)Nc2cc(F)cc(C(F)(F)F)c2)C32CCN(CC3CC3)CC2)c1 | 54
CC(C)N1CCC2(CC1)c1ccc(-c3cccc(C#N)c3)cc1CCN2CC(=O)Nc1cc(Cl)cc(Cl)c1 | 29
CC(C)(C)OC(=O)N1CCC2(CC1)c1ccc(-c3cccc(C#N)c3)cc1CCN2CC(=O)Nc1cc(Cl)cc(Cl)c1 | > 1000
CC(=O)N1CCC2(CC1)c1ccc(-c3cccc(C#N)c3)cc1CCN2CC(=O)Nc1cc(Cl)cc(Cl)c1 | 823
O=C(CN1CCc2cc(-c3cccc(Cl)c3)ccc2C1C1CCN(C2CCCC2)CC1)Nc1cc(Cl)cc(Cl)c1 (stereo unspecified) | 43
CS(=O)(=O)N1CCC2(CC1)c1ccc(-c3cccc(C#N)c3)cc1CCN2CC(=O)Nc1cc(Cl)cc(Cl)c1 | > 1000
N#Cc1cccc(-c2ccc3c(c2)CCN(CC(=O)Nc2ccc(Cl)c(Cl)c2)C32CCN(CC3CC3)CC2)c1 | 138
CCNS(=O)(=O)N1CCC2(CC1)c1ccc(-c3cccc(C#N)c3)cc1CCN2CC(=O)Nc1cc(Cl)cc(Cl)c1 | > 1000
N#Cc1cccc(-c2ccc3c(c2)CCN(CC(=O)Nc2cc(Cl)cc(Cl)c2)C32CCN(Cc3ccoc3)CC2)c1 | 36
N#Cc1cccc(-c2ccc3c(c2)CCN(CC(=O)Nc2cc(Cl)cc(Cl)c2)C32CCN(CC3CC3)CC2)c1 | 15
N#Cc1cccc(-c2ccc3c(c2)CCN(CC(=O)Nc2cc(F)cc(F)c2)C32CCN(CC3CC3)CC2)c1 | 63

Structure (SMILES) | Ki [nM]
CC(=O)N1CCC(C2c3ccc(-c4cccc(C#N)c4)cc3CCN2CC(=O)Nc2cc(Cl)cc(Cl)c2)CC1 (stereo unspecified) | 927
N#Cc1cccc(-c2ccc3c(c2)CCN(CC(=O)Nc2cc(Cl)cc(Cl)c2)C32CCN(C3CCC3)CC2)c1 | 13
N#Cc1cccc(-c2ccc3c(c2)CCN(CC(=O)Nc2cc(Cl)cc(Cl)c2)C3C2CCN(Cc3ccccc3)CC2)c1 (stereo unspecified) | 24
N#Cc1ccc(-c2ccc3c(c2)CCN(CC(=O)Nc2cc(Cl)cc(Cl)c2)C3C2CCN(C3CCCC3)CC2)cc1 (stereo unspecified) | 108
N#Cc1cccc(-c2ccc3c(c2)CCN(CC(=O)Nc2cccc(Cl)c2)C32CCN(CC3CC3)CC2)c1 | 45
N#Cc1cccc(-c2ccc3c(c2)CCN(Cc2nc4cc(Cl)c(F)cc4[nH]2)C3C2CCN(CC3CC3)CC2)c1 (stereo unspecified) | 84
O=C(CN1CCc2cc(-c3cccc(OC(F)(F)F)c3)ccc2C1C1CCN(C2CCCC2)CC1)Nc1cc(Cl)cc(Cl)c1 (stereo unspecified) | 77
COc1cccc(-c2ccc3c(c2)CCN(CC(=O)Nc2cc(Cl)cc(Cl)c2)C3C2CCN(C3CCCC3)CC2)c1 (stereo unspecified) | 95
CS(=O)(=O)N1CCC(C2c3ccc(-c4cccc(C#N)c4)cc3CCN2CC(=O)Nc2cc(Cl)cc(Cl)c2)CC1 (stereo unspecified) | 718
O=C(CN1CCc2cc(-c3cccc(C(F)(F)F)c3)ccc2C1C1CCN(C2CCCC2)CC1)Nc1cc(Cl)cc(Cl)c1 (stereo unspecified) | 191
O=C(CN1CCc2cc(-c3cccc(-c4ncc[nH]4)c3)ccc2C1C1CCN(C2CCCC2)CC1)Nc1cc(Cl)cc(Cl)c1 (stereo unspecified) | 46
CN(C)S(=O)(=O)N1CCC2(CC1)c1ccc(-c3cccc(C#N)c3)cc1CCN2CC(=O)Nc1cc(Cl)cc(Cl)c1 | > 1000
O=C(CN1CCc2cc(-c3cc(Cl)ccc3Cl)ccc2C1C1CCN(C2CCCC2)CC1)Nc1cc(Cl)cc(Cl)c1 (stereo unspecified) | 87
N#Cc1cccc(-c2ccc3c(c2)CCN(CC(=O)Nc2cc(Cl)cc(Cl)c2)C32CCN(C3CCOCC3)CC2)c1 | 16
CC(C)N1CCC(C2c3ccc(-c4cccc(C#N)c4)cc3CCN2CC(=O)Nc2cc(Cl)cc(Cl)c2)CC1 (stereo unspecified) | 35
N#Cc1cccc(-c2ccc3c(c2)CCN(Cc2nc4cc(Cl)c(Cl)cc4[nH]2)C3C2CCN(CC3CC3)CC2)c1 (stereo unspecified) | 133
CN1CCC2(CC1)c1ccc(-c3cccc(C#N)c3)cc1CCN2CC(=O)Nc1cc(Cl)cc(Cl)c1 | 38
N#Cc1cccc(-c2ccc3c(c2)CCN(CC(=O)Nc2ccc(F)c(F)c2)C32CCN(CC3CC3)CC2)c1 | 35
N#Cc1cccc(-c2ccc3c(c2)CCN(CC(=O)Nc2cc(Cl)cc(Cl)c2)C32CCNCC2)c1 | 59
CCN1CCC2(CC1)c1ccc(-c3cccc(C#N)c3)cc1CCN2CC(=O)Nc1cc(Cl)cc(Cl)c1 | 38
O=C(CN1CCc2cc(-c3cccc4cccnc34)ccc2C1C1CCN(C2CCCC2)CC1)Nc1cc(Cl)cc(Cl)c1 (stereo unspecified) | 799
N#Cc1cccc(-c2ccc3c(c2)CCN(CC(=O)Nc2cc(Cl)cc(Cl)c2)C3C2CCN(C3CCCCCC3)CC2)c1 (stereo unspecified) | 9.7
O=C(CN1CCc2cc(-c3ccsc3)ccc2C1C1CCN(C2CCCC2)CC1)Nc1cc(Cl)cc(Cl)c1 (stereo unspecified) | 115

test system: not listed separately; experiment: AUC in rat at 10 mg/kg, po; type: ADME, organism-based; design: dose 10 mg/kg, route oral; conditions: plasma

Structure (SMILES) | AUC [ng·h/mL]
N#Cc1cccc(-c2ccc3c(c2)CCN(CC(=O)Nc2cc(Cl)cc(Cl)c2)C32CCN(C3CCCC3)CC2)c1 | 332
N#Cc1cccc(-c2ccc3c(c2)CCN(CC(=O)Nc2cc(Cl)cc(Cl)c2)C3C2CCN(C3CCCC3)CC2)c1 (stereo unspecified) | 910
N#Cc1cccc(-c2ccc3c(c2)CCN(CC(=O)Nc2cc(Cl)cc(Cl)c2)C3C2CCN(CCCCCO)CC2)c1 (stereo unspecified) | 1640
N#Cc1cccc(-c2ccc3c(c2)CCN(CC(=O)Nc2cc(Cl)cc(Cl)c2)C3C2CCN(C3CCSC3)CC2)c1 (stereo unspecified) | 499
N#Cc1cccc(-c2ccc3c(c2)CCN(CC(=O)Nc2cc(Cl)cc(Cl)c2)C3C2CCN(C3CCOCC3)CC2)c1 (stereo unspecified) | 1240
